Assay results: patent US20220259202A1, “1-(4-(AMINOMETHYL)BENZYL)-2-BUTYL-2H-PYRAZOLO[3,4-C]QUINOLIN-4-AMINE DERIVATIVES AND RELATED COMPOUNDS AS TOLL-LIKE RECEPTOR (TLR) 7/8 AGONISTS, AS WELL AS ANTIBODY DRUG CONJUGATES THEREOF FOR USE IN CANCER THERAPY AND DIAGNOSIS” (SUTRO BIOPHARMA, INC., priority 2019, published 2022)

Experiments:
Experiment in all cases: HEK293 SEAP reporter assay, other TLRs (Biological Example 3)
Format in all cases: cell-based
Details in all cases: 16 hrs, up to 1 μM
human TLR2 = target: T1, human TLR2 (Homo sapiens, UniProt O60603)
T1 construct: host or cells: HEK293
T1 sequence (O60603 21-784): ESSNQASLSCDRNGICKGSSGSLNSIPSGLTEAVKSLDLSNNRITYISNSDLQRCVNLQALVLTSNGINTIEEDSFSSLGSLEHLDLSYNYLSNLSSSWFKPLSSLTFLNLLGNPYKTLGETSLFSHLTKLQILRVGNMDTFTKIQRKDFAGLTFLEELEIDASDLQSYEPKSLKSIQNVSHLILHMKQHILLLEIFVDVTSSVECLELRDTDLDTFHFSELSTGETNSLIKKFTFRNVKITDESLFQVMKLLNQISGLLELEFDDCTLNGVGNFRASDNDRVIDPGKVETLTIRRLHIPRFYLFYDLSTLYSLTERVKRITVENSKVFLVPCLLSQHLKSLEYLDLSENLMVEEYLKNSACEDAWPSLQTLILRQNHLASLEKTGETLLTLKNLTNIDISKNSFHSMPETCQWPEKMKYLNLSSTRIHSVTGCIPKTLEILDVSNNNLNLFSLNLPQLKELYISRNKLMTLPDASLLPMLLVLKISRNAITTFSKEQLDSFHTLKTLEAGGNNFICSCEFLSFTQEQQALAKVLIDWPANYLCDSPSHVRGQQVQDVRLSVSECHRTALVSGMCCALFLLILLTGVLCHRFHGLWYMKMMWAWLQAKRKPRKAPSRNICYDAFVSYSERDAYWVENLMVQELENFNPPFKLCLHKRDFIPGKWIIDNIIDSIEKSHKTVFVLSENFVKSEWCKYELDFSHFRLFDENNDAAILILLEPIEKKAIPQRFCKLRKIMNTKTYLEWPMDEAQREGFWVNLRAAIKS
Text: (§1) In this example, the activity of the Compound 1 to stimulate different human and mouse TLR pathways was investigated on HEK293 cells transfected with inducible SEAP (secreted embryonic alkaline phosphatase) reporter genes and also expressing different human TLRs (TLR2, TLR3, TLR4, TLR5, TLR7, TLR8, TLRS) or mouse TLRs (TLR2, TLR3, TLR4, TLR5, TLR7, TLR8, TLR13). Compound A
(§2) HEK293 reporter cell lines were purchased from Invivogen and cell lines were maintained in manufacture recommended culture medium with required supplemental antibiotics. On the day of assay, the cells were harvested with Accutase and counted by the Vi-CELL Cell Viability Analyzers. Cells were re-suspended in HEK blue detection medium and a total of 10000 cells were seeded in each well of a 384-well flat bottom plate. […] Assay plates were cultured at 37° C. in a CO2 incubator for 16 hrs. HEK-Blue™ Detection medium changes to a purple/blue color in the presence of secreted SEAP, which can be detected by spectrophotometry at 620-655 nm. Data was fitted with non-linear regression analysis, using a log(inhibitor) vs. response-variable slope, 3-parameter fit with GraphPad Prism.

human TLR4 = target: T2, human TLR4 (Homo sapiens, UniProt O00206+Q9Y6Y9)
T2 construct: host or cells: HEK293
T2 sequence (O00206 24-839): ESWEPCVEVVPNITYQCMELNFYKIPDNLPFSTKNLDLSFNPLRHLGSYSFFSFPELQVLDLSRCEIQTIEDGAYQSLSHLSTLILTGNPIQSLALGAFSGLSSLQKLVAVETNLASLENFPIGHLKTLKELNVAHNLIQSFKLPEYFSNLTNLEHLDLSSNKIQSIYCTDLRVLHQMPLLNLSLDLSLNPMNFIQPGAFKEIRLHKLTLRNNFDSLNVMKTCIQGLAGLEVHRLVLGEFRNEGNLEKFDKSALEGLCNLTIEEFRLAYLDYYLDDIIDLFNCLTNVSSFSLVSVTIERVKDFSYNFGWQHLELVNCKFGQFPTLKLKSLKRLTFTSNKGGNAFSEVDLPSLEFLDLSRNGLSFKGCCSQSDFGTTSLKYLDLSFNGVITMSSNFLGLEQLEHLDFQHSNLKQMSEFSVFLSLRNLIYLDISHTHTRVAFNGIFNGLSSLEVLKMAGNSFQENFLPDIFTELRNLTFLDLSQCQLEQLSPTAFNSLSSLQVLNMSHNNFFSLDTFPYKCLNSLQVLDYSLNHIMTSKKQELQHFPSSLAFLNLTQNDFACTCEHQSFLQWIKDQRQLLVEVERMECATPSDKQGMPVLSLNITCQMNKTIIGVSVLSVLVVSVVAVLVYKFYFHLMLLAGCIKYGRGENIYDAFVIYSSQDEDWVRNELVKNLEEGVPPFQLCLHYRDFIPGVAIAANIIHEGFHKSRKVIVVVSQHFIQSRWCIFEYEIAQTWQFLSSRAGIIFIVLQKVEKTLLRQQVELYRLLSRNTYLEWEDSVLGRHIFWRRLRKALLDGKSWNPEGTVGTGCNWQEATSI
T2 sequence (Q9Y6Y9 17-160 limits assumed): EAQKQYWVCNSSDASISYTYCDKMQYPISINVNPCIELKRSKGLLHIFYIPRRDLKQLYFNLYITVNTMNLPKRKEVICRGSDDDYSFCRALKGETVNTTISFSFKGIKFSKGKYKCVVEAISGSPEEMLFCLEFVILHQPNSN
Text: as §1, §2

mouse TLR13 = target: T3, mouse TLR13 (Mus musculus, UniProt Q6R5N8)
T3 construct: host or cells: HEK293
T3 sequence (Q6R5N8 69-991): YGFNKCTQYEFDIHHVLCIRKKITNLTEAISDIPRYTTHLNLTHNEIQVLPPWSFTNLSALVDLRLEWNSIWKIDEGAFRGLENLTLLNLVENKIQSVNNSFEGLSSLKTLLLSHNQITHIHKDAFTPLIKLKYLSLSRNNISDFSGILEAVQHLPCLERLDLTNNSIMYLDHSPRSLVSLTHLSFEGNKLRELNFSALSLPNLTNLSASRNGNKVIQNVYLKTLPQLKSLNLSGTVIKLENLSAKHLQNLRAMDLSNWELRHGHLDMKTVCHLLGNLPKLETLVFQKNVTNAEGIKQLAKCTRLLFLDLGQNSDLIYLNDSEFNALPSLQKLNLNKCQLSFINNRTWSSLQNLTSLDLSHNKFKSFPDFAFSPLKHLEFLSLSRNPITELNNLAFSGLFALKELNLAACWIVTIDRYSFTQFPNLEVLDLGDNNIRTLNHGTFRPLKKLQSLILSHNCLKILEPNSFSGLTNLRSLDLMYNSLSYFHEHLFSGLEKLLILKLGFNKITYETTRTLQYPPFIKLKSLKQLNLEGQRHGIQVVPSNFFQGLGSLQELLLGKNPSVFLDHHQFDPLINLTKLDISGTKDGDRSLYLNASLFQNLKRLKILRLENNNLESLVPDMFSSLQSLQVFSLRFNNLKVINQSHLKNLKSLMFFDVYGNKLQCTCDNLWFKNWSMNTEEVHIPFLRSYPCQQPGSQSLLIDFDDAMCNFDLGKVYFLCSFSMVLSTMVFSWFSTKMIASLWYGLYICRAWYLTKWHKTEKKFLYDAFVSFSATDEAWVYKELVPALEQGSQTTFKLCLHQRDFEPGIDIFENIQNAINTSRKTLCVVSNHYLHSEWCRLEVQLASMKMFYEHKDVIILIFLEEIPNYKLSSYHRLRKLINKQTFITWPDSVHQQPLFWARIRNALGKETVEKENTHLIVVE
Text: as §1, §2

mouse TLR2 = target: T4, mouse TLR2 (Mus musculus, UniProt Q9QUN7)
T4 construct: host or cells: HEK293
T4 sequence (Q9QUN7 25-784): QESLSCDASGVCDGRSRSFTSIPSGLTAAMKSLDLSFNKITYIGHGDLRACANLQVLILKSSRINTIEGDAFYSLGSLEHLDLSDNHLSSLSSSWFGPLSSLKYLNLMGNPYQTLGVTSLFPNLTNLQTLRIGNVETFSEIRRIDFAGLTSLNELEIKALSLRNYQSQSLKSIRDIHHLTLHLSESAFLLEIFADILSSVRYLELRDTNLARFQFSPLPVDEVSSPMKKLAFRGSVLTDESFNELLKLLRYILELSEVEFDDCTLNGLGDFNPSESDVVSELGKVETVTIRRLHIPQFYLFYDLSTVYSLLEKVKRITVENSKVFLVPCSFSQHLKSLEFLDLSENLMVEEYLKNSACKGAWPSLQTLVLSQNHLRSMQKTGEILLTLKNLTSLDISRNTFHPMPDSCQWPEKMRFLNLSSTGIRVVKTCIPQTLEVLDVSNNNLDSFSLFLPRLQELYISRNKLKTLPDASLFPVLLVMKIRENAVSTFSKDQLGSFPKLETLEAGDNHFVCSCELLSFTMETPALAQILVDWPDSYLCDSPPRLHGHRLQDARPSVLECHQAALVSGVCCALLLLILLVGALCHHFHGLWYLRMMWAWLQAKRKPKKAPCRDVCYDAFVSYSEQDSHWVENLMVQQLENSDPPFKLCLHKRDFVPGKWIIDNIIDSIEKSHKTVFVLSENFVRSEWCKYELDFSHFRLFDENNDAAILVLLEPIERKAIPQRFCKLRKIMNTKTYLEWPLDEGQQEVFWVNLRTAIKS
Text: as §1, §2

mouse TLR8 = target: T5, mouse TLR8 (Mus musculus, UniProt P58682)
T5 construct: host or cells: HEK293
T5 sequence (P58682 24-1032): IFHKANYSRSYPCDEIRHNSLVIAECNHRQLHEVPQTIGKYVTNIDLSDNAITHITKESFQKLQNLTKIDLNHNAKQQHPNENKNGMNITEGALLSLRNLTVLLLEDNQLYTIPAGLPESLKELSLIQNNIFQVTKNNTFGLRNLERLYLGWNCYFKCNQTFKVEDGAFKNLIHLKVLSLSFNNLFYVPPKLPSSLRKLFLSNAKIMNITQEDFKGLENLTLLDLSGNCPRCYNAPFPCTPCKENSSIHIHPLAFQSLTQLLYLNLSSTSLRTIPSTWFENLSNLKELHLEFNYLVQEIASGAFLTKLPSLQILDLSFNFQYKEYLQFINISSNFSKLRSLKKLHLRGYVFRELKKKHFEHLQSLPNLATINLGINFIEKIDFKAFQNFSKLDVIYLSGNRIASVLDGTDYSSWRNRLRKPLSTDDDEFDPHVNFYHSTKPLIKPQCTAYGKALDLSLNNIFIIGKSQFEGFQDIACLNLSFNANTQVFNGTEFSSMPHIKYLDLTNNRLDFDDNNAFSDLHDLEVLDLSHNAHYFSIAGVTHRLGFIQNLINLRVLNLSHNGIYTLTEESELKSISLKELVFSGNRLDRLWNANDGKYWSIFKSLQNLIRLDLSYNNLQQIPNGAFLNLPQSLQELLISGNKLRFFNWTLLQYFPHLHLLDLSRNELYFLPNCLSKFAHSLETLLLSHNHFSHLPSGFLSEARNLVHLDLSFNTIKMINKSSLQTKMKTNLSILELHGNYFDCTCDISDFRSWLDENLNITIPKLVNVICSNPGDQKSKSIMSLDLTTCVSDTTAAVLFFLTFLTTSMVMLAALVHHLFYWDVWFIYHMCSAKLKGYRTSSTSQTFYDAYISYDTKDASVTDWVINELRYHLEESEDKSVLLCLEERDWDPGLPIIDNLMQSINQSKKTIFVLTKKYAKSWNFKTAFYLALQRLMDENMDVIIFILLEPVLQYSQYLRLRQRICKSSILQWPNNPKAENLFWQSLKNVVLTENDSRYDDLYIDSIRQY
Text: as §1, §2

Measured: EC50

CCCCn1nc2c(N)nc3ccccc3c2c1Cc1ccc(CN)cc1 [Compound 1, 1-(4-(aminomethyl)benzyl)-2-butyl-2H-pyrazolo[3,4-c]quinolin-4-amine]
> 1 µM: all assays above

CCCCc1nc2c(N)nc3ccccc3c2n1Cc1ccc(CN)cc1 [Compound A, reference compound]
> 1 µM: all assays above
